Results as given in publication PMC9055851 (RSC Advances, 2020).

Biological target: Aβ42 peptide (Homo sapiens, UniProt P05067)
Test: ThT fluorescence assay for inhibition of Aβ42 fibrillation
Assay type: biochemical

Aβ42 peptide, sequence (P05067 672-713): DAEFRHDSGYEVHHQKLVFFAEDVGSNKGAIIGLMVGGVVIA

## O=[N+]([O-])c1ccc(/N=N/c2ccc3nc(-c4ccccc4)c(I)c(-c4ccccc4)c3c2)cc1 [Compound 1d, (E)-3-Iodo-6-((4-nitrophenyl)diazenyl)-2,4-diphenylquinoline]
Aβ42 25 μM, compounds 25 μM, PBS, 37 °C, 24 h
  % inhibition for Aβ aggregation: 75.2 ± 3.0%
read-out: % inhibition for Aβ aggregation, Aβ42 25 μM, compounds 25 μM, PBS, 37 °C, 24 h
  inhibition at 25 µM: ~75%
